Assay results taken from patent US20220009920A1 (GB005, Inc., priority 2020, published 2022).

Columns and labels:
BTK in RAMOS B cells = assay: Assay to determine BTK activity in RAMOS B cells (anti-IgM, FLIPR Calcium 6); type: cell-based; conditions: anti-IgM EC80, calcium readout
Description: On the day before assay, Ramos B cells were plated in plating medium (RPMI1640 medium containing 1% FBS and 1× pencillin-streptomycin). On the day of the assay, 2× dye solution was prepared following the manual of the FLIRP Calcium 6 Assay Kit: Dilute the dye with assay buffer (20 mM HEPES in IX HBSS, pH7.4); Add probenecid to the final concentration of 5 mM; vortex vigorously for 1-2 minutes. Cells were collected by centrifuging, and the pellet was re-suspended in plating medium. After counting, cells were re-suspended at a density of 3×10^6/ml in plating medium. Equal volume of 2× dye solution was added to the cell suspension. Cells were then plated at 20 μl/well into a 384-well poly-D-lysine coated plate. Plate was centrifuged at 1000 rpm for 3 minutes and then incubated at 37° C. for 2 hours followed by an additional 15-minute incubation at 25° C. Compounds were prepared at 3× concentration in dilution buffer (20 mM HEPES and 0.1% BSA in 1×HBSS, pH 7.4). Serially diluted compound was transferred from source plate to a 384-well compound plate by using an Echo 550 (Labcyte). 20 μl/well compound dilution buffer was added to the compound plate and mixed on plate shaker for 2 mins. 4× EC80 of Anti-IgM (Jackson ImmunoResearch) was prepared in dilution buffer and 20 μl/well was added to a new 384-well compound plate. After 60 mins of incubation at 25° C. in the dark; cell plate, compound plate containing 4×EC80 of anti-IgM and FLIPR tips were placed into FLIPR (Molecular Devices). 10 ul/well of 4×EC80 anti-IgM was transferred to the cell plate by FLIPR. Plates were read for 160 sec with 1 sec interval.

BTK = biological target: T1, BTK (Homo sapiens, UniProt Q06187); assay: Assay to determine activity against BTK; type: biochemical; conditions: 1 mM ATP, 2 nM BTK, 90 minutes at room temperature
T1 construct: purchased Cama
T1 sequence (Q06187 whole entry): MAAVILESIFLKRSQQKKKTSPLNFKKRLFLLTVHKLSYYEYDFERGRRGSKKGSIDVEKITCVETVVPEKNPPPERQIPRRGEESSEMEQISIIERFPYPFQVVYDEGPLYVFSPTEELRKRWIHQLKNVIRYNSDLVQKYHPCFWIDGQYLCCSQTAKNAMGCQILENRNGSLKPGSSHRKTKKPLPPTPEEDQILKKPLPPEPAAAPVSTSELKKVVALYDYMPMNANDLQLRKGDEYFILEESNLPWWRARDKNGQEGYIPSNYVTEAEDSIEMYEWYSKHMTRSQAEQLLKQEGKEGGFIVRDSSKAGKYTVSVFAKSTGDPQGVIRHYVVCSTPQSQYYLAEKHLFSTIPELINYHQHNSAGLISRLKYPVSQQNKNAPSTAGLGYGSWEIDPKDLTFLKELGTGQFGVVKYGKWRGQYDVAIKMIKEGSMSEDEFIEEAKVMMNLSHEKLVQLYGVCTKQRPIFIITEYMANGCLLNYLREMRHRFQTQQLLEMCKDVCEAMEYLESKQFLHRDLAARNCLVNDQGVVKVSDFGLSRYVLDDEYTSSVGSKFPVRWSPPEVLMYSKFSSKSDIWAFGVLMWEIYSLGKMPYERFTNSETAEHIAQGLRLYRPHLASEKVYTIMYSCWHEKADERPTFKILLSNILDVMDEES
Description: Solutions of compounds (test or control) in DMSO were prepared at the desired concentrations, and serially diluted to 11 concentrations by 3-fold dilution in 384pp-plate using TECAN EVO200. 20 nL of stock were transferred to 384 plate using Echo550. DMSO was used as vehicle control.
(BTK was obtained from Cama; FLPeptide2 was obtained from PerkinElmer and Ibrutinib was obtained from Selleck.) 5 μL of ATP solution were added to each well, followed by addition of 15 μL of BTK solution to initiate the reaction. (Note the final volume of each well was 20 μL containing MgCl2 (10 mM), Brij-35 (0.01%), DTT (2 mM), BSA (0.05%), EGTA (1 mM), HEPE (pH7.5) (50 mM), FLPeptide (1.5 uM), ATP (1 mM) and BTK (2 nM).
The plates were incubated at room temperature for 90 minutes and then stopping buffer added (75 μL, containing 0.5 M EDTA) to terminate the reaction. Samples from each well were analyzed using EZ reader. The % remaining activity was calculated using read conversion ratio (CR) according to the equation: […]
XLFit (equation 201) was used to calculate IC50's by floating both bottom and top.

Row | Structure (SMILES) | IC50 (BTK in RAMOS B cells; Homo sapiens, Ramos) | IC50 (BTK) | IC50 (BTK in RAMOS B cells)
1 | C=CC(=O)N1CCc2c(-c3c(F)cc(C(N)=O)c4[nH]c5c(c34)CC3(CC5)CC3)cccc2[C@@H]1C (atropisomer, axis not shown) [Compound 7-20, 5-((S)-2-acryloyl-1-methyl-1,2,3,4-tetrahydroisoquinolin-5-yl)-6-fluoro-1,2,4,9-tetrahydrospiro[carbazole-3,1′-cyclopropane]-8-carboxamide] | ≥ 100 nM | ≥ 100 nM | 
2 | C=CC(=O)N1CCc2c(-c3c(F)cc(C(N)=O)c4[nH]c5c(c34)CC3(CC5)CC3)cccc2[C@@H]1C (atropisomer, axis not shown) [Compound 7-21, (R)-5-((S)-2-acryloyl-1-methyl-1,2,3,4-tetrahydroisoquinolin-5-yl)-6-fluoro-1,2,4,9-tetrahydrospiro[carbazole-3,1′-cyclopropane]-8-carboxamide] | 10 to 100 nM | < 10 nM | 
3 | C=CC(=O)N1CCCC(c2c(F)cc(C(N)=O)c3[nH]c4c(c23)CCCCC4)C1 (racemic) [Compound 5-5, 1-(1-acryloylpiperidin-3-yl)-2-fluoro-5,6,7,8,9,10-hexahydrocyclohepta[b]indole-4-carboxamide] | 10 to 100 nM | 10 to 100 nM | 
4 | C=CC(=O)N1CCc2c(cccc2-c2c(C)nc(C(N)=O)c3[nH]c4c(c23)CCCC4)C1 (single isomer, unassigned) [Compound 2-5, 4-(2-acryloyl-1,2,3,4-tetrahydroisoquinolin-5-yl)-3-methyl-6,7,8,9-tetrahydro-5H-pyrido[3,4-b]indole-1-carboxamide] |  | 10 to 100 nM | ≥ 100 nM
5 | C=CC(=O)N1CCc2c(cccc2-c2c(C)nc(C(N)=O)c3[nH]c4c(c23)CCCC4)C1 (single isomer, unassigned) [Compound 2-6, 4-(2-acryloyl-1,2,3,4-tetrahydroisoquinolin-5-yl)-3-methyl-6,7,8,9-tetrahydro-5H-pyrido[3,4-b]indole-1-carboxamide] |  | < 10 nM | 10 to 100 nM
6 | C=CC(=O)N1CCc2c(cccc2-c2c(C)nc(C(N)=O)c3[nH]c4c(c23)CCCC4)C1 (single isomer, unassigned) [Compound 2-7, 4-(2-acryloyl-1,2,3,4-tetrahydroisoquinolin-5-yl)-3-methyl-6,7,8,9-tetrahydro-5H-pyrido[3,4-b]indole-1-carboxamide] |  | ≥ 100 nM | ≥ 100 nM
7 | C=CC(=O)N1CCc2c(cccc2-c2c(F)cc(C(N)=O)c3[nH]c4c(c23)CCCCC4)C1 (single isomer, unassigned) [Compound 5-1, 2-fluoro-1-[2-(prop-2-enoyl)-3,4-dihydro-1H-isoquinolin-5-yl]-5H,6H,7H,8H,9H,10H-cyclohepta[b]indole-4-carboxamide] |  | 10 to 100 nM | 10 to 100 nM
8 | C=CC(=O)N1CCc2c(cccc2-c2c(F)cc(C(N)=O)c3[nH]c4c(c23)CCCCC4)C1 (single isomer, unassigned) [Compound 5-2, 2-fluoro-1-[2-(prop-2-enoyl)-3,4-dihydro-1H-isoquinolin-5-yl]-5H,6H,7H,8H,9H,10H-cyclohepta[b]indole-4-carboxamide] |  | ≥ 100 nM | ≥ 100 nM
9 | C=CC(=O)N1CCCC(c2c(F)cc(C(N)=O)c3[nH]c4c(c23)CCCCC4)C1 (single isomer, unassigned) [Compound 5-7] |  | ≥ 100 nM | ≥ 100 nM
10 | C=CC(=O)N1CCc2c(cccc2-c2c(F)cc(C(N)=O)c3[nH]c4c(c23)C[S+]([O-])CC4)C1 (single isomer, unassigned) [Compound 9-1, 9-(2-acryloyl-1,2,3,4-tetrahydroisoquinolin-5-yl)-8-fluoro-1,3,4,5-tetrahydrothiopyrano[4,3-b]indole-6-carboxamide 2-oxide] | ≥ 100 nM | < 10 nM | 
11 | C=CC(=O)N1CCc2c(cccc2-c2c(F)cc(C(N)=O)c3[nH]c4c(c23)C[S+]([O-])CC4)C1 (single isomer, unassigned) [Compound 9-2, 9-(2-acryloyl-1,2,3,4-tetrahydroisoquinolin-5-yl)-8-fluoro-1,3,4,5-tetrahydrothiopyrano[4,3-b]indole-6-carboxamide 2-oxide] |  | 10 to 100 nM | ≥ 100 nM
12 | C=CC(=O)N1CCc2c(cccc2-c2c(F)cc(C(N)=O)c3[nH]c4c(c23)CS(=O)(=O)CC4)C1 (single isomer, unassigned) [Compound 9-3, 9-(2-acryloyl-1,2,3,4-tetrahydroisoquinolin-5-yl)-8-fluoro-1,3,4,5-tetrahydrothiopyrano[4,3-b]indole-6-carboxamide 2,2-dioxide] |  | < 10 nM | 10 to 100 nM
13 | C=CC(=O)N1CCc2c(cccc2-c2c(F)cc(C(N)=O)c3[nH]c4c(c23)CS(=O)(=O)CC4)C1 (single isomer, unassigned) [Compound 9-4, 9-(2-acryloyl-1,2,3,4-tetrahydroisoquinolin-5-yl)-8-fluoro-1,3,4,5-tetrahydrothiopyrano[4,3-b]indole-6-carboxamide 2,2-dioxide] |  | ≥ 100 nM | ≥ 100 nM
14 | CC#CC(=O)N[C@H]1CCCC(c2c(F)cc(C(N)=O)c3[nH]c4c(c23)CCC4)C1 (single isomer, unassigned) [Compound 10-5] |  | < 10 nM | < 10 nM
15 | CC#CC(=O)N[C@H]1CCCC(c2c(F)cc(C(N)=O)c3[nH]c4c(c23)CCC4)C1 (single isomer, unassigned) [Compound 10-6] |  | 10 to 100 nM | ≥ 100 nM
16 | C=CC(=O)N1CCCC(c2cnc(C(N)=O)c3[nH]c4c(c23)CCCC4)C1 (centres unmarked) [Compound 1-1, 4-(1-acryloylpiperidin-3-yl)-6,7,8,9-tetrahydro-5H-pyrido[3,4-b]indole-1-carboxamide] | 10 to 100 nM | 10 to 100 nM | 
17 | C=CC(=O)N1CCc2c(cccc2-c2cnc(C(N)=O)c3[nH]c4c(c23)CCCC4)C1 [Compound 2-1, 4-(2-acryloyl-1,2,3,4-tetrahydroisoquinolin-5-yl)-6,7,8,9-tetrahydro-5H-pyrido[3,4-b]indole-1-carboxamide] | 10 to 100 nM | 10 to 100 nM | 
18 | C=CC(=O)N1CCC=C(c2cnc(C(N)=O)c3[nH]c4c(c23)CCCC4)C1 [Compound 2-2] | 10 to 100 nM | 10 to 100 nM | 
19 | C=CC(=O)N1CCC[C@H](c2cnc(C(N)=O)c3[nH]c4c(c23)CCCC4)C1 [Compound 2-3, (R)-4-(1-acryloylpiperidin-3-yl)-6,7,8,9-tetrahydro-5H-pyrido[3,4-b]indole-1-carboxamide] | ≥ 100 nM | ≥ 100 nM | 
20 | CC#CC(=O)N1CCC=C(c2cnc(C(N)=O)c3[nH]c4c(c23)CCCC4)C1 [Compound 2-8, 4-(1-(but-2-ynoyl)-1,2,5,6-tetrahydropyridin-3-yl)-6,7,8,9-tetrahydro-5H-pyrido[3,4-b]indole-1-carboxamide] | ≥ 100 nM | 10 to 100 nM | 
21 | C=CC(=O)N1CCC=C(c2cnc(C(N)=O)c3[nH]c4c(c23)CC(F)(F)CC4)C1 [Compound 2-9, 4-(1-acryloyl-1,2,5,6-tetrahydropyridin-3-yl)-6,6-difluoro-6,7,8,9-tetrahydro-5H-pyrido[3,4-b]indole-1-carboxamide] | 10 to 100 nM | 10 to 100 nM | 
22 | C=CC(=O)N1CCc2c(cccc2-c2ncc(C(N)=O)c3[nH]c4c(c23)CCCC4)C1 [Compound 3-1, 1-(2-acryloyl-1,2,3,4-tetrahydroisoquinolin-5-yl)-6,7,8,9-tetrahydro-5H-pyrido[4,3-b]indole-4-carboxamide] | < 10 nM | < 10 nM | 
